According to patent US10555987B2, “GHRH agonists for the treatment of ischemic disorders” (UNIVERSITY OF MIAMI, priority 2012, dated 2020):
Non-standard residues stand in square brackets, D forms with d. Residues, ends and D or L forms follow the SMILES beside them. *: point of attachment. Phe(F5) = N[C@@H](Cc1c(F)c(F)c(F)c(F)c1F)C(=O)O; Desaminotyrosyl = O=C(CCc1ccc(O)cc1)*; Nle = CCCC[C@H](N)C(=O)O; Orn = NCCC[C@H](N)C(=O)O; Abu = CC[C@H](N)C(=O)O; GABA = NCCCC(=O)O

Tests used:
GH release = assay: GH releasing potency in vivo, subcutaneous administration (Example 14, Table 12); design: species or system rat
Outline: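 Potency is expressed relative to GHRH(1-29)NH2 and JI-38 (each = 1), via equivalent GHRH(1-29)NH2 dose read from a standard curve. Peptides in 5% mannitol given i.v. or s.c. to anaesthetised male Sprague-Dawley rats (200-250 g); serum GH measured by ELISA at selected times.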

[1] = test system: myocardial infarction (Fisher-344 rats); assay: Hemodynamic analysis (pressure-volume loops), body and heart weight after MI, compared to JI-38 (Example 15, Table 16); type: in vivo, rat; design: key to ESP (End-Systolic Pressure) / EDP (End-Diastolic Pressure) / ESV (End-Systolic Volume) / PRSW (Preload Recruitable Stroke Work) / Ees (End-systolic Elastance) / dP/dt max (peak rate of the pressure rise) / dP/dt max_EDV / dP/dt min / TAU (relaxation time constant calculated by Weiss method) / SV (Stroke Volume) / CO (Cardiac Output) / SW (Stroke Work) / EF / Ea/Ees / Ea (arterial Elastance): ↓: downward arrow denotes lower than JI-38; ↑: upward arrow denotes greater than JI-38; =denotes same as JI-38; ⬇⬇: double arrow denotes greater effect; ⬆⬆: double arrow denotes greater effect; conditions: rat MI model, s.c. twice daily; pressure-volume loops; expressed in comparison to JI-38
Outline: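 Female 6-month-old Fisher-344 rats after permanent left coronary ligation received GHRH agonists subcutaneously twice daily from 2 h post-surgery (n=10/group). Under ketamine/xylazine/acepromazine anesthesia, LV pressure-volume loops were recorded via carotid micromanometer catheter, calibrated by hypertonic saline bolus and cuvette method; echocardiography also serial.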

GHRH receptor = target: T1, GHRH receptor (Homo sapiens, UniProt Q02643); assay: GHRH receptor binding, competition with 125I-labeled JV-1-42, human pituitary membrane homogenates (Table 5); design: Normal human pituitaries were purchased from the National Hormone and Peptide Program; tissue National Hormone and Peptide Program (A.F. Parlow, Harbor-UCLA Medical Center, Torrance, Calif.); host or cells: normal human pituitary, membrane fraction
T1 sequence (Q02643 23-423): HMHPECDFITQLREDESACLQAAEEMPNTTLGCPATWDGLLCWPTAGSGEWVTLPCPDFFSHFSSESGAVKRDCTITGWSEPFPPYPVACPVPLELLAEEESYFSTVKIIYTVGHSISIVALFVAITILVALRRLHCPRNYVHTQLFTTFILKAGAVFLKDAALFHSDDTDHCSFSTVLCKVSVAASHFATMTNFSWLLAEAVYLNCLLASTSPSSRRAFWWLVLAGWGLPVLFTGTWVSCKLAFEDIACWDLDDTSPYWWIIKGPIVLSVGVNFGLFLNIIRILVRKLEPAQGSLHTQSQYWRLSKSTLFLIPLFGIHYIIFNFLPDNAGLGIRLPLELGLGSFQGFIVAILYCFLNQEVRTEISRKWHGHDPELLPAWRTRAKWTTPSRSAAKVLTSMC

Relative affinity (Binding potency) vs GHRH (GHRH receptor; GHRH(1-29) = 1, Table 5): 58.0
Relative affinity (Binding potency) vs JI-38 (GHRH receptor; JI-38 = 1, Table 5): 24.4
SMILES: CCCC[C@H](NC(=O)[C@@H](NC(=O)[C@H](CC(=O)O)NC(=O)[C@H](CCC(N)=O)NC(=O)[C@H](CC(C)C)NC(=O)[C@H](CC(C)C)NC(=O)[C@H](CCCN)NC(=O)[C@H](CCCNC(=N)N)NC(=O)[C@H](C)NC(=O)[C@H](CO)NC(=O)[C@H](CC(C)C)NC(=O)[C@H](CCC(N)=O)NC(=O)[C@H](CC)NC(=O)[C@H](CC(C)C)NC(=O)[C@@H](NC(=O)[C@H](CCCN)NC(=O)[C@H](CCCNC(=N)N)NC(=O)[C@H](Cc1ccc(O)cc1)NC(=O)[C@H](CO)NC(=O)[C@H](CC(N)=O)NC(=O)[C@@H](NC(=O)[C@H](Cc1c(F)c(F)c(F)c(F)c1F)NC(=O)[C@@H](NC(=O)[C@H](C)NC(=O)[C@H](CC(=O)O)NC(=O)[C@@H](C)NC(=O)CCc1ccc(O)cc1)[C@@H](C)CC)[C@@H](C)O)C(C)C)[C@@H](C)CC)C(=O)N[C@@H](CO)C(=O)N[C@@H](CCCNC(=N)N)C(=O)NCCCC(N)=O [Peptide P-25502, [Dat^1, D-Ala^2, Fpa5^6, Orn^12, Abu^15, Orn^21, Nle^27, Gab^30]hGHRH(1-30)NH2] (Desaminotyrosyl-[dA]DAI[Phe(F5)]TNSYR[Orn]VL[Abu]QLSAR[Orn]LLQDI[Nle]SR[GABA]-NH2)
potency as compared to JI-38 in both i.v. and s.c. tests (GH release; both i.v. and s.c. tests): increased potency as compared to JI-38
Serum GH level at selected time after injection (ng/ml), 0 min (GH release; male rats, s.c., dose 3 μg/kg, 0 min, mean ± SEM): 61.7 ± 8.1 ng/mL
Serum GH level at selected time after injection (ng/ml), 15 min (GH release; male rats, s.c., dose 3 μg/kg, 15 min, mean ± SEM): 266.7 ± 21^ ng/ml
Serum GH level at selected time after injection (ng/ml), 30 min (GH release; male rats, s.c., dose 3 μg/kg, 30 min, mean ± SEM): 153.2 ± 33.3 ng/mL
Relative potency compared to GHRH(1-29), 15 min (GH release; s.c., 15 min): 76.5
Relative potency compared to JI-38, 15 min (GH release; s.c., 15 min): 1.21
Relative potency compared to GHRH(1-29), 30 min (GH release; s.c., 30 min): 152.3
Relative potency compared to JI-38, 30 min (GH release; s.c., 30 min): 1.36
Relative GH-releasing potency compared to JI-38 in s.c. tests (fold, range over time points) (GH release; s.c., time not specified, listed as MR-502): 1.2-1.4
CO (Cardiac Output) [1]: ↓
EDP (End-Diastolic Pressure) [1]: =
EF [1]: ↓
ESP (End-Systolic Pressure) [1]: =
ESV (End-Systolic Volume) [1]: =
Ea (arterial Elastance) [1]: ↑
Ea/Ees [1]: =
Ees (End-systolic Elastance) [1]: ↑
PRSW (Preload Recruitable Stroke Work) [1]: =
SV (Stroke Volume) [1]: ↓
SW (Stroke Work) [1]: =
TAU (relaxation time constant calculated by Weiss method) [1]: ↓
dP/dt max (peak rate of the pressure rise) [1]: =
dP/dt max_EDV [1]: =
dP/dt min [1]: =
